Experiment: Curcumin concentration in blood of rats after ten days of once-daily oral dosing, determined by HPLC/DAD
Type: in vivo
Procedure: This experiment involved the use of 6 groups of rats (n=6):
Group 1: is the control group, where the animals received a solution of 0.5% carboxy methyl cellulose (CMC) in normal saline (formulation vehicle) once daily orally for ten days.
Group 2: Rats were given Eucalyptol (20 mg/kg) solubilized in 0.5% carboxy methyl cellulose (CMC) in normal saline once a day orally for ten days.
Group 3: Rats were administered curcumin (10 mg/kg) solubilized in 0.5% carboxy methyl cellulose (CMC) in normal saline once daily orally for ten days.
Groups 4, 5 and 6: Rats were given combinations of curcumin (10 mg/kg) with Eucalyptol (5 mg/kg, group 4), (10 mg/kg group 5), and (20 mg/kg, group 6), solubilized in 0.5% carboxy methyl cellulose (CMC) in normal saline orally once daily for ten days.
After the last dose on day 10, blood samples were withdrawn from animals after 0.5, 1, 2, 4, 6, 12 and 24 hours, and HPLC/DAD techniques determined the concentrations of curcumin.

time after administration at which curcumin concentration increased in serum (after last dose on day 10, curcumin 10 mg/kg alone): 1 h
time after administration at which curcumin concentration reached the maximum concentration in serum (after last dose on day 10, curcumin 10 mg/kg alone (group 3)): 6 h
Compound: COc1cc(/C=C/C(=O)CC(=O)/C=C/c2ccc(O)c(OC)c2)ccc1O [curcumin]
